# Measurements from ChEMBL document CHEMBL4706727, “Discovery of 2,4-1H-Imidazole Carboxamides as Potent and Selective TAK1 Inhibitors” (ACS Med Chem Lett, 2021).
# System: HCT-15
# Assay: Cytotoxicity against TNFalpha-induced human HCT-15 cells assessed as reduction in cell viability preincubated for 2 hrs followed by TNFalpha stimulation and measured after 72 hrs by celltiter-glo assay
# Type: functional, cell-based
smiles,measurement,value
COc1cc(O)c2c(c1)/C=C/C[C@H](O)[C@H](O)C(=O)/C=C\C[C@H](C)OC2=O,EC50,2 nM
